Results taken from US20240294522A1 (Lead Discovery Center GmbH, priority 2021, published 2024).

Assays:
GRK5 = target: T1, GRK5 (Homo sapiens, UniProt P34947); experiment: Lance Kinase Activity Assay, GRK5; conditions: biochemical Lance kinase activity assay; class symbols A-F; read-out: GRK5 LANCE Assay (IC-50)
T1 construct: purchased Thermo Scientific
How it was run: (§1)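 IC50s from sigmoidal dose-response over 0.0025-10 μM compound, with phosphorylated ULight substrate detected by Eu anti-phospho antibody FRET after EDTA quench.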

GRK2 = target: T2, GRK2 (Homo sapiens, UniProt P25098); experiment: Lance Kinase Activity Assay, GRK2; conditions: biochemical Lance kinase activity assay; class symbols A-F; read-out: GRK2 LANCE Assay (IC-50)
T2 construct: purchased Thermo Scientific
T2 sequence (P25098 1-689): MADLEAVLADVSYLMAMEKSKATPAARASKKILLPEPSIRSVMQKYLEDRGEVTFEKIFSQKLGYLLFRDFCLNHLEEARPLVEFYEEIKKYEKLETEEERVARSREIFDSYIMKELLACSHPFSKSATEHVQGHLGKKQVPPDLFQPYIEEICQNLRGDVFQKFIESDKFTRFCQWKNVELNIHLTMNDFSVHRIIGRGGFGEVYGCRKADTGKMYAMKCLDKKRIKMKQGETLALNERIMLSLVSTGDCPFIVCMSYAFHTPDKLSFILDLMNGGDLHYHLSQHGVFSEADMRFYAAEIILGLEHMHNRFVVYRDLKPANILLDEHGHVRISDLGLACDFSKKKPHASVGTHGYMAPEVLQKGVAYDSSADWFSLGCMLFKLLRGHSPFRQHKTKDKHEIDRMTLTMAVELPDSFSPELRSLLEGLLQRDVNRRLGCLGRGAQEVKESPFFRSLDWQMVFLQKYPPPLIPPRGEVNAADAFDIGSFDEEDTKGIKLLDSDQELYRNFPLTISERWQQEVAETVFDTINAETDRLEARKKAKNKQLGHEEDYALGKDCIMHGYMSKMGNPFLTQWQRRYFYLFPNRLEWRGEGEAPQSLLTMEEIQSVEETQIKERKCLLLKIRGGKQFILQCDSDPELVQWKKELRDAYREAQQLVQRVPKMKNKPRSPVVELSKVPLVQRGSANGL
How it was run: as §1

T1 sequence (P34947 whole entry): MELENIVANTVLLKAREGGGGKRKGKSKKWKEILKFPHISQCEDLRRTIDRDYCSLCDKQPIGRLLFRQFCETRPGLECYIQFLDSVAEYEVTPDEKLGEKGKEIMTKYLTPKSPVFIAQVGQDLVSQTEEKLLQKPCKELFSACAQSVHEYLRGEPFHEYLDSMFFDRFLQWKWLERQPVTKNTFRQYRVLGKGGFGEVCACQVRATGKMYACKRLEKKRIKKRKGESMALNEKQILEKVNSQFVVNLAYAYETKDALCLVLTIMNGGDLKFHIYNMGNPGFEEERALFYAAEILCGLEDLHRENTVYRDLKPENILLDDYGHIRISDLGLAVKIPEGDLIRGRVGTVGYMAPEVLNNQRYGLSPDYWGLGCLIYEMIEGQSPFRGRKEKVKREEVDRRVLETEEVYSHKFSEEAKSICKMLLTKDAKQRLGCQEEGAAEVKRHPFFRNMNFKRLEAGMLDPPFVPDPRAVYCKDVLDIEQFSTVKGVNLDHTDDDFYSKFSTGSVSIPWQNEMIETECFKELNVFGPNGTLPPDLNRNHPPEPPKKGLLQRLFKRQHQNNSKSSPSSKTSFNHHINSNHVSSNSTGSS

Compound	IC50 (GRK5) [nM]	IC50 (GRK2) [nM]
COc1ccc([C@@H](C)NC(=O)/C(C#N)=C/c2c[nH]c3ncc(-c4cnn(C)c4)c(C)c23)cc1OC [Example 99, (R,E)-2-cyano-N-(1-(3,4-dimethoxyphenyl)ethyl)-3-(4-methyl-5-(1-methyl-1H-pyrazol-4-yl)-1H-pyrrolo[2,3-b]pyridin-3-yl)acrylamide]	100 to 500	> 10000
COc1ccc([C@@H](C)NC(=O)/C(C#N)=C/c2c[nH]c3ncc(-c4cccc(C(=O)N5CCOCC5)c4)cc23)cc1OC [Example 127, (R,E)-2-cyano-N-(1-(3,4-dimethoxyphenyl)ethyl)-3-(5-(3-(morpholine-4-carbonyl)phenyl)-1H-pyrrolo[2,3-b]pyridin-3-yl)acrylamide]	≤ 50	> 10000
CC[C@H](C)Oc1cnc2[nH]cc(/C=C(\C#N)C(=O)N[C@H](C)c3ccc(OC)c(OC)c3)c2c1 [Example 109, (E)-3-(5-((S)-sec-butoxy)-1H-pyrrolo[2,3-b]pyridin-3-yl)-2-cyano-N-((R)-1-(3,4-dimethoxyphenyl)ethyl)acrylamide]	≤ 50	> 10000
COc1cccc(-c2cnc3[nH]cc(/C=C(\C#N)C(=O)N[C@H](C)c4ccc(OC)c(OC)c4)c3c2)c1 [Example 137, (R,E)-2-cyano-N-(1-(3,4-dimethoxyphenyl)ethyl)-3-(5-(3-methoxyphenyl)-1H-pyrrolo[2,3-b]pyridin-3-yl)acrylamide]	≤ 50	> 10000
C[C@@H](NC(=O)/C(C#N)=C/c1c[nH]c2ncccc12)c1ccc(F)cc1 [Example 69, (R,E)-2-cyano-N-(1-(4-fluorophenyl)ethyl)-3-(1H-pyrrolo[2,3-b]pyridin-3-yl)acrylamide]	≤ 50	50 to 100
CC(NC(=O)/C(C#N)=C/c1c[nH]c2ncccc12)c1ccc(F)cc1 (stereo not drawn) [Example 63, (E)-2-cyano-N-(1-(4-fluorophenyl)ethyl)-3-(1H-pyrrolo[2,3-b]pyridin-3-yl)acrylamide]	100 to 500	100 to 500
COc1ccc([C@@H](C)NC(=O)/C(C#N)=C/c2c[nH]c3ncc(OC4CCS(=O)(=O)CC4)cc23)cc1OC [Example 105, (R,E)-2-cyano-N-(1-(3,4-dimethoxyphenyl)ethyl)-3-(5-((1,1-dioxidotetrahydro-2H-thiopyran-4-yl)oxy)-1H-pyrrolo[2,3-b]pyridin-3-yl)acrylamide]	≤ 50	1000 to 10000
N#C/C(=C\c1c[nH]c2ncccc12)C(=O)NCc1cccc(C(F)(F)F)c1 [Example 61, (E)-2-cyano-3-(1H-pyrrolo[2,3-b]pyridin-3-yl)-N-(3-(trifluoromethyl)benzyl)acrylamide]	500 to 1000	1000 to 10000
COc1ccc([C@@H](C)NC(=O)/C=C/c2c[nH]c3nccc(-c4cccc(NS(C)(=O)=O)c4)c23)cc1OC [Example 231, (R,E)-N-(1-(3,4-dimethoxyphenyl)ethyl)-3-(4-(3-(methylsulfonamido)phenyl)-1H-pyrrolo[2,3-b]pyridin-3-yl)acrylamide]	100 to 500	> 10000
COc1ccc([C@@H](C)NC(=O)/C(C#N)=C/c2c[nH]c3ncc(-c4cn(C)cn4)cc23)cc1OC [Example 166, (R,E)-2-cyano-N-(1-(3,4-dimethoxyphenyl)ethyl)-3-(5-(1-methyl-1H-imidazol-4-yl)-1H-pyrrolo[2,3-b]pyridin-3-yl)acrylamide]	≤ 50	1000 to 10000

Second part, the compound after the results:

IC50 (GRK5) [nM]	IC50 (GRK2) [nM]	Compound
≤ 50	1000 to 10000	COc1ccc([C@@H](C)NC(=O)/C(C#N)=C/c2c[nH]c3ncc(-c4cccc(CN5CCN(C(C)=O)CC5)c4)cc23)cc1OC [Example 141, (R,E)-3-(5-(3-((4-acetylpiperazin-1-yl)methyl)phenyl)-1H-pyrrolo[2,3-b]pyridin-3-yl)-2-cyano-N-(1-(3,4-dimethoxyphenyl)ethyl)acrylamide]
≤ 50	1000 to 10000	COc1ccc([C@@H](C)NC(=O)/C(C#N)=C/c2c[nH]c3ncc(-c4ccc(CCN(C)C)cc4)cc23)cc1OC [Example 134]
≤ 50	500 to 1000	COc1ccc(C(CCN(C)C)NC(=O)/C(C#N)=C/c2c[nH]c3ncccc23)cc1 (stereo not drawn) [Example 51, (E)-2-cyano-N-(3-(dimethylamino)-1-(4-methoxyphenyl)propyl)-3-(1H-pyrrolo[2,3-b]pyridin-3-yl)acrylamide]
≤ 50	> 10000	COc1ccc([C@@H](C)NC(=O)/C(C#N)=C/c2c[nH]c3ncc(-c4cccnc4)cc23)cc1OC [Example 130]
1000 to 10000	> 10000	N#C/C(=C\c1c[nH]c2ncccc12)C(=O)NCc1ccc(S(N)(=O)=O)cc1 [Example 21, (E)-2-cyano-3-(1H-pyrrolo[2,3-b]pyridin-3-yl)-N-(4-sulfamoylbenzyl)acrylamide]
50 to 100	1000 to 10000	COc1ccc([C@@H](C)NC(=O)/C=C/c2c[nH]c3nccc(-c4ccc(CN5CCOCC5)cc4)c23)cc1OC [Example 232, (R,E)-N-(1-(3,4-dimethoxyphenyl)ethyl)-3-(4-(4-(morpholinomethyl)phenyl)-1H-pyrrolo[2,3-b]pyridin-3-yl)acrylamide]
≤ 50	1000 to 10000	COc1ccc([C@@H](C)NC(=O)/C(C#N)=C/c2c[nH]c3ncc(-c4cnn(C)c4)cc23)cc1OC [Example 164]
1000 to 10000	> 10000	N#C/C(=C\c1c[nH]c2ncc(Cl)cc12)C(=O)NCc1ccccc1Cl [Example 74, (E)-3-(5-chloro-1H-pyrrolo[2,3-b]pyridin-3-yl)-N-(2-chlorobenzyl)-2-cyanoacrylamide]
≤ 50	> 10000	COc1ccc([C@@H](C)NC(=O)/C(C#N)=C/c2c[nH]c3ncc(-c4cnn(CC(C)C)c4)cc23)cc1OC [Example 161, (R,E)-2-cyano-N-(1-(3,4-dimethoxyphenyl)ethyl)-3-(5-(1-isobutyl-1H-pyrazol-4-yl)-1H-pyrrolo[2,3-b]pyridin-3-yl)acrylamide]
1000 to 10000	1000 to 10000	CC(NC(=O)/C=C/c1c[nH]c2ncccc12)c1ccc(F)cc1 (stereo not drawn) [Example 10, (E)-N-(1-(4-fluorophenyl)ethyl)-3-(1H-pyrrolo[2,3-b]pyridin-3-yl)acrylamide]
50 to 100	> 10000	COc1ccc([C@@H](C)NC(=O)/C=C/c2c[nH]c3ncc(-c4c(C)nn(C)c4C)cc23)cc1OC [Example 209, (R,E)-N-(1-(3,4-dimethoxyphenyl)ethyl)-3-(5-(1,3,5-trimethyl-1H-pyrazol-4-yl)-1H-pyrrolo[2,3-b]pyridin-3-yl)acrylamide]
≤ 50	1000 to 10000	COc1ccc([C@@H](C)NC(=O)/C(C#N)=C/c2c[nH]c3ncc(OC4CCOC4)cc23)cc1OC (stereo partly drawn) [Example 103, (E)-2-cyano-N-((R)-1-(3,4-dimethoxyphenyl)ethyl)-3-(5-((tetrahydrofuran-3-yl)oxy)-1H-pyrrolo[2,3-b]pyridin-3-yl)acrylamide]
100 to 500	> 10000	COc1ccc([C@@H](C)NC(=O)/C(C#N)=C/c2c[nH]c3ncc(-c4ccc(F)cc4OC)cc23)cc1OC [Example 123]
100 to 500	1000 to 10000	N#C/C(=C\c1c[nH]c2ncccc12)C(=O)NCc1ccccc1S(=O)(=O)N1CCOCC1 [Example 41, (E)-2-cyano-N-(2-(morpholinosulfonyl)benzyl)-3-(1H-pyrrolo[2,3-b]pyridin-3-yl)acrylamide]
